Source: patent US20240050436A1, “COMPOSITIONS AND METHODS USED FOR RETINAL ISCHEMIA OR DIABETES” (The United States GOVERNMENT As Represented By The …, priority 2021, published 2024)

Columns and labels:
HREs [1] = test: Tube formation assay (Matrigel); assay type: cell-based, human; conditions: 24 h of treatment with CM of modulated MSCs
Protocol: Corning Matrigel Matrix (10 mg protein/mL) Growth Factor Reduced (Corning Inc., Cat. No. 354230, Corning, NY, USA) was used for tube formation assay. Then, 289 μL of cold (4° C.) Matrigel per well was added into chilled 24-well flat-bottom tissue culture plate (USA Scientific Inc., Ocala, FL, USA) and polymerized for 1 h at 37° C., 5% CO2 incubator. HREs were trypsinized and separated into different groups. Each group of cells was centrifuged and cell pellets were resuspended in regular media without FBS, same media with 1:1 mixture of FBS free regular media and CM of vehicle- or treated-MSCs. Then 300 μL of the cell suspension was added onto each well of Matrigel coated 24-well culture plate and incubated at 37° C. After 24-h, cells forming tube structures were analyzed by microscopy. Cells in five replicate fields of triplicate wells were digitally photographed with an EVOS microscope (Thermo Fisher Scientific Inc., Waltham, MA, USA). The images for Tube formation assay were analyzed using Angiogenesis analyzer for imageJ. An area of 1.8 mm2 from each well was analyzed with imageJ ver. 1.53c, and 3 wells were analyzed per group. […] The total tubular length was calculated as the average of the total tubule length from three wells, five random fields per well.

p75^NTR on MSCs = target: T1, p75^NTR on MSCs (Mus musculus, UniProt Q9Z0W1); test: MSCs secretome: Western blotting of MSCs conditioned medium (CM); assay type: cell-based; conditions: Western blot of CM vs control CM; LM11A-31: 200 nM, 12 h; or p75NTR siRNA silencing
T1 construct: endogenous in cells; host or cells: GFP-labeled mouse mesenchymal stem cells (passages 5-9)
T1 sequence (Q9Z0W1 32-427): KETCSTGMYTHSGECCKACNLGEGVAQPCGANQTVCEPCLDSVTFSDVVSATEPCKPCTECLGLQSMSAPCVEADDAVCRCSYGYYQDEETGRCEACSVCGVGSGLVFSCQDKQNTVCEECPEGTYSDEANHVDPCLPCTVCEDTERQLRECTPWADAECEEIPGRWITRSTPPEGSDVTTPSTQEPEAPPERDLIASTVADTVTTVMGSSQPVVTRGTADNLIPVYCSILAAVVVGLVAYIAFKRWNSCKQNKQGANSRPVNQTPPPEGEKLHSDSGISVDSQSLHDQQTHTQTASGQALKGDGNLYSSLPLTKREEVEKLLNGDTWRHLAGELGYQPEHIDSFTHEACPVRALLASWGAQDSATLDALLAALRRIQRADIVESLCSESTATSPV
Protocol: GFP-labeled mouse MSCs were obtained as a kind gift from Dr. William D. Hill (MUSC, Charleston, SC) and used between passages 5-9. MSCs cells were cultured in high glucose DMEM (4.5 g/L D-glucose, Thermo-Fisher Grand Island, NY, USA) supplemented with 10% FBS and 1% penicillin/streptomycin at 37° C. and 5% CO2. Knocking down p75NTR expression was performed according to manufacturer's instructions (Santa Cruz Biotechnology Inc., Dallas, TX, USA). Briefly, MSCs were shifted to antibiotic-free medium over night when 60-80% confluent. Cells were transfected with Si-RNA against p75NTR receptor (sc-37268) or scrambled (sc-37007) with the aid of lipofectamine transfection reagent (sc-29528) for 6 h. DMEM medium containing 2× of FBS and antibiotic was added on top of pure transfection medium for an extra 12 h. Next, transfection medium was removed and cells were allowed to recover in 1×DMEM medium for 6 h. For in vivo studies, cells were collected in sterile PBS (50,000 cells/μL) for intravitreal injection 48 h after I/R. For additional set of experiments, MSCs were treated with the p75NTR modulator (LM11A-31, 200 nM). Confluent MSCs (80% confluent) were treated with LM11A-31 or its vehicle for 12 h. Then, condition media were collected as well as cell lysates using mirVANA™ PARIS™ Kit (Ambion Inc., Austin, TX, USA), according to manufacturer's instructions.

HREs [2] = test: Cell migration assay (wounded HREs, CM of treated MSCs); assay type: cell-based, human; conditions: 12 h of treatment with CM of modulated MSCs
Protocol: HREs were grown to confluence and then were wound with a single sterile cell scraper of constant diameter. Cells were divided into three groups, treated with regular media without FBS, and 1:1 mixture of FBS-free regular media and CM of vehicle- or treated-MSCs. Images of wounded areas were taken immediately after adding the treatment using a phase contrast microscope, and baseline were marked under the cell culture dish with blue marker. After 12 h, images of same field were taken and % cell migration was calculated. Each condition was verified in triplicate and was repeated using independent cultures.

[3] = normal young and elderly individuals; cited from earlier work

**Q.** What does the source list for `CCC(C)C(N)C(=O)NCCN1CCOCC1` (stereo not shown) [LM11A-31, 2-amino-3-methyl-pentanoic acid [2-morpholin-4-yl-ethyl]-amide]?
**A.** number of junction points, increase (HREs [1]): 1.5 Fold; tube length, increase (HREs [1]): 1.4 Fold; NGF in MSCs conditioned medium, increase (p75^NTR on MSCs): ~4 Fold; SDF-1α in MSCs conditioned medium, increase (p75^NTR on MSCs): ~14.9 Fold; VEGF-A in MSCs conditioned medium, increase (p75^NTR on MSCs): 1.6 Fold; HREs migration, increase (HREs [2]): 1.34 Fold; phase I safety trial outcome [3]: successfully completed
